Data reported in patent US9765075B2, “Substituted bridged urea analogs as sirtuin modulators” (GLAXOSMITHKLINE LLC, priority 2013, dated 2017).
Positions count from the first letter of the chain named.

Columns and labels:
Assay in all cases: SIRT1 activation dose-response, OAcADPr assay with Ac-p53(W5) substrate
Assay type in all cases: biochemical
full-length hSIRT1 N226A = target: T1, full-length hSIRT1 N226A (Homo sapiens, UniProt Q96EB6, N226A); conditions: for EC50: hSIRT1 N226A, activation dose-response, Ac-p53(W5) substrate
T1 construct: The following point mutants of full-length hSIRT1 were generated; His6 (C); made in house
T1 sequence (Q96EB6 1-747 N226A): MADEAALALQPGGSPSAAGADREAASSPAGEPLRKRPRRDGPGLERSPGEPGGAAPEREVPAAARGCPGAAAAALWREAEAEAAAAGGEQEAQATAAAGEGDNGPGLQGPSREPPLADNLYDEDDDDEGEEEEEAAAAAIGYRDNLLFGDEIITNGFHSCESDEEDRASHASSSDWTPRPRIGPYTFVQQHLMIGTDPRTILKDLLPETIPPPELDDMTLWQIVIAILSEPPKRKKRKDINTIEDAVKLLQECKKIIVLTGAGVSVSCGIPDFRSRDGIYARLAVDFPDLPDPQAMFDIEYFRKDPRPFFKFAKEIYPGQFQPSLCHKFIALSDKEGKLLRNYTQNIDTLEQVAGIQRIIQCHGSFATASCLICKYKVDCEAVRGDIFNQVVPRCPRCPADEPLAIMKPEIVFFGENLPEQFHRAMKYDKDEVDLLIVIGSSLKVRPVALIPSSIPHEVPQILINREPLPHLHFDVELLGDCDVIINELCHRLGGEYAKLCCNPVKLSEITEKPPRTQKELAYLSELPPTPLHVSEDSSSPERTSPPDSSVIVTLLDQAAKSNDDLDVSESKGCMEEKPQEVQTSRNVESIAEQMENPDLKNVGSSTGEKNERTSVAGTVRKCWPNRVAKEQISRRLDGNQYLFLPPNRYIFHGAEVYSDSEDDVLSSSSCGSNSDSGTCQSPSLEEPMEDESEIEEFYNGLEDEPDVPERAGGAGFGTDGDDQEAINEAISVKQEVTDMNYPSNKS
Protocol: (§1) SIRT1 activation and inhibition assays were run in reaction buffer with 0.05% BSA at 25° C. and analyzed using the OAcADPr assay. Enzyme and compound were pre-incubated for 20 minutes before addition of substrates. […] The dose-dependence of five compounds was tested and the fold-activation data were described by Eq. 1
(§2) [formula] where vx/v0 is the ratio of the reaction rate in the presence (vx) versus absence (v0) of activator (X), RVmax is the relative velocity at infinite activator concentration, EC50 is the concentration of activator required to produce one-half RVmax and b is the minimum value of vx/v0.

full-length hSIRT1 I223A = target: T2, full-length hSIRT1 I223A (Homo sapiens, UniProt Q96EB6, I223A); conditions: for EC50: hSIRT1 I223A, activation dose-response, Ac-p53(W5) substrate
T2 construct: The following point mutants of full-length hSIRT1 were generated; His6 (C); made in house
T2 sequence (Q96EB6 1-747 I223A): T1 sequence (Q96EB6 1-747 N226A) with I223A, A226N
Protocol: as §1, §2

full-length hSIRT1 I227A = target: T3, full-length hSIRT1 I227A (Homo sapiens, UniProt Q96EB6, I227A); conditions: for EC50: hSIRT1 I227A, activation dose-response, Ac-p53(W5) substrate
T3 construct: The following point mutants of full-length hSIRT1 were generated; His6 (C); made in house
T3 sequence (Q96EB6 1-747 I227A): T1 sequence (Q96EB6 1-747 N226A) with A226N, I227A
Protocol: as §1, §2

Row | SMILES | EC50 fold shift (mutant EC50/wild-type EC50) (full-length hSIRT1 N226A) | RVmax fold shift = (wild-type RVmax−1)/(mutant RVmax−1) (full-length hSIRT1 N226A) | EC50 (full-length hSIRT1 N226A) [µM] | EC50 fold shift (mutant EC50/wild-type EC50) (full-length hSIRT1 I223A) | RVmax fold shift = (wild-type RVmax−1)/(mutant RVmax−1) (full-length hSIRT1 I223A) | EC50 (full-length hSIRT1 I223A) [µM] | EC50 fold shift (mutant EC50/wild-type EC50) (full-length hSIRT1 I227A) | RVmax fold shift = (wild-type RVmax−1)/(mutant RVmax−1) (full-length hSIRT1 I227A) | EC50 (full-length hSIRT1 I227A) [µM]
1 | O=C(Nc1ccccn1)N1c2nc(-c3cccc(C(F)(F)F)c3)ccc2N2CC[C@H]1C2 [Example 7] | 1.78 | 1.32 | 3.92 | 2.51 | 6.90 | 5.51 | 3.07 | 0.85 | 6.76
2 | Cc1cnc2c(NC(=O)N3c4nc(-c5cccc(C(F)(F)F)c5)ccc4N4CC[C@H]3C4)cccc2n1 [Example 8] | 2.15 | 1.34 | 1.03 | 4.91 | 0.97 | 2.36 | 6.21 | 1.06 | 2.98
